Data on 1 compound can be found in patent publication US10081633B2, “Adenylyl cyclase inhibitors, pharmaceutical compositions and method of use thereof” (priority 2016, dated 2018).

Assay [1] deals with T1, type V adenylyl cyclase (Homo sapiens, UniProt O95622).
T1 construct: from tissue; host or cells: heart (cardiomyocyte) membrane preparations from transgenic mice overproducing type V adenylyl cyclase
The experiment in a line: Adenylyl cyclase membrane assay, type V (cAMP ELISA). Type of assay: biochemical, mouse. The settings on record: cardiomyocyte membrane preparations from transgenic mice; forskolin 50 μM. Here is the method: (§1) Compounds were assayed for their ability to attenuate cyclic AMP (cAMP) production in cardiomyocyte membrane preparations isolated from transgenic mice. Transgenic mice were separately bred to overproduce type V adenylyl cyclase, type VI adenylyl cyclase and type II adenylyl cyclase. cAMP levels were determined using a Cyclic AMP Competitive ELISA kit purchased from ThermoFischer Scientific (Cat# EMSCAMPL).
(§2) Buffer A (pH 8) was prepared comprising final concentrations of the following: 50 mM Tris, 1 mM EGTA, 1 mM EDTA, 1 mM DTT, 100 mM sucrose, 20 μg/mL TPCK (protease inhibitor), 20 μg/mL TLCK (protease inhibitor), 1 mM PMSF (protease inhibitor), 10 μg/mL leupeptin (protease inhibitor) and 10 μg/mL aprotinin (protease inhibitor).
(§3) Buffer B (pH 8) was prepared comprising final concentrations of the following: 50 mM Tris, 1 mM EDTA, 100 mM sucrose, 0.2 mM PMSF (protease inhibitor), 2 μg/mL leupeptin (protease inhibitor) and 2 μg/mL aprotinin (protease inhibitor).
Hearts were surgically excised from transgenic mice. Each isolated heart was treated with 3-4 mL of buffer A and cooled to 0 deg C. for 5 minutes. Treated hearts were homogenized for 10 seconds using a Polytron homogenizer cooled to 0 deg C. and set to speed 6. Homogenized hearts were centrifuged at 500×g at 4 deg C. for 10 minutes. Supernatants were transferred to ultracentrifuge tubes and centrifuged at 35,000 rpm at 4 deg C. for 40 minutes. Isolated pellets were combined with buffer B (500 μL) and sonicated to a suspension. Protein concentration was determined using a commercial Bradford assay kit. Membrane preparations were stored at −80 deg C.
Buffer R (pH 8) was prepared comprising final concentrations in water of the following: HEPES (20 mM), magnesium chloride (5 mM), EDTA (0.5 mM), ATP (0.1 mM), phospho creatinine (1 mM), creatinine phosphokinase (8 units/mL), IBMX (200 μM), forskolin (50 μM) or control (DMSO in water).
Inhibitor solutions were prepared by dilution of stock solutions of inhibitors (10 mM in DMSO) to a final concentration of 100 μM in water. Serial dilutions with water were subsequently made in order to determine IC50 values.
Reaction mixtures were prepared comprising buffer R (10 μL), inhibitor or control (10 μL), and water (75 μL).
A reaction mixture was pre-incubated at 30 deg C. for 5 minutes. A membrane preparation (e.g. 5 μL for type V Adenylyl Cyclase comprising 2 μg of membrane protein per 5 μL of preparation) was added and the mixture was incubated at 30 deg C. for 15 minutes. The reaction was stopped by addition of 0.1 M hydrochloric acid (100 μL) and cooled to 0 deg C. The resulting mixture was incubated at 0 deg C. for 60 minutes. The cAMP concentration of the supernatant was measured using a Cyclic AMP Competitive ELISA kit purchased from ThermoFischer Scientific.
Background: In an ELISA, binding on a coated surface is turned into a signal by an enzyme label.

Assay [2] relates to H9c2(2-1) myoblast cell line. The experiment in a line: Adenylyl cyclase cell-based assay, forskolin-stimulated cAMP. The conditions noted are these: Rattus norvegicus; H9c2 cells, forskolin 50 μM. How it is done:
(§4) H9c2(2-1) myoblast cell line was obtained from ATCC (CRL-1446). Cells (10^5 cells/mL) were seeded in 24-well plates at 5×10^4 cells per well. Cells were allowed to attach over 24 hours. The cells were then washed with PBS. Serum-free DMEM supplemented with 20 mM HEPES and 0.5 mM IBMX was added and the cells were incubated at 37 deg C. for 20 minutes. An Adenylyl Cyclase inhibitor (0.001-100 μM in DMSO/water with DMSO concentration <1%) was added and the mixture was incubated at 37 deg C. for 10 minutes. Forskolin (50 μM in DMSO/water with DMSO concentration <1%) was added and the mixture was incubated at 37 deg C. for 10 minutes. As an alternative to forskolin, isoproterenol (5 mM in DMSO/water with DMSO concentration <1%) was added and the mixture was incubated at 37 deg C. for 15 minutes. The media was removed and the cells were lysed by addition of 0.1 M hydrochloric acid (200 μL) 0 deg C. Lysed mixtures were maintained at 0 deg C. for 10-20 minutes and the plates were then centrifuged at 3,000×g for 5 minutes. cAMP levels in the supernatant were measured using the ThermoScientific cAMP competitive ELISA (EMSCAMPL) kit with samples acetylated in glass or polypropylene tubes.

Assay [3] has as its system H9c2(2-1) myoblast cell line. The experiment in a line: Adenylyl cyclase cell-based assay, isoproterenol-stimulated cAMP. The conditions noted are these: Rattus norvegicus; H9c2 cells, isoproterenol 5 mM. How it is done:
as §4

The target of assay [4] is T2, type II adenylyl cyclase (Homo sapiens, UniProt Q08462).
T2 construct: from tissue; host or cells: heart (cardiomyocyte) membrane preparations from transgenic mice overproducing type II adenylyl cyclase
T2 sequence (Q08462 whole entry): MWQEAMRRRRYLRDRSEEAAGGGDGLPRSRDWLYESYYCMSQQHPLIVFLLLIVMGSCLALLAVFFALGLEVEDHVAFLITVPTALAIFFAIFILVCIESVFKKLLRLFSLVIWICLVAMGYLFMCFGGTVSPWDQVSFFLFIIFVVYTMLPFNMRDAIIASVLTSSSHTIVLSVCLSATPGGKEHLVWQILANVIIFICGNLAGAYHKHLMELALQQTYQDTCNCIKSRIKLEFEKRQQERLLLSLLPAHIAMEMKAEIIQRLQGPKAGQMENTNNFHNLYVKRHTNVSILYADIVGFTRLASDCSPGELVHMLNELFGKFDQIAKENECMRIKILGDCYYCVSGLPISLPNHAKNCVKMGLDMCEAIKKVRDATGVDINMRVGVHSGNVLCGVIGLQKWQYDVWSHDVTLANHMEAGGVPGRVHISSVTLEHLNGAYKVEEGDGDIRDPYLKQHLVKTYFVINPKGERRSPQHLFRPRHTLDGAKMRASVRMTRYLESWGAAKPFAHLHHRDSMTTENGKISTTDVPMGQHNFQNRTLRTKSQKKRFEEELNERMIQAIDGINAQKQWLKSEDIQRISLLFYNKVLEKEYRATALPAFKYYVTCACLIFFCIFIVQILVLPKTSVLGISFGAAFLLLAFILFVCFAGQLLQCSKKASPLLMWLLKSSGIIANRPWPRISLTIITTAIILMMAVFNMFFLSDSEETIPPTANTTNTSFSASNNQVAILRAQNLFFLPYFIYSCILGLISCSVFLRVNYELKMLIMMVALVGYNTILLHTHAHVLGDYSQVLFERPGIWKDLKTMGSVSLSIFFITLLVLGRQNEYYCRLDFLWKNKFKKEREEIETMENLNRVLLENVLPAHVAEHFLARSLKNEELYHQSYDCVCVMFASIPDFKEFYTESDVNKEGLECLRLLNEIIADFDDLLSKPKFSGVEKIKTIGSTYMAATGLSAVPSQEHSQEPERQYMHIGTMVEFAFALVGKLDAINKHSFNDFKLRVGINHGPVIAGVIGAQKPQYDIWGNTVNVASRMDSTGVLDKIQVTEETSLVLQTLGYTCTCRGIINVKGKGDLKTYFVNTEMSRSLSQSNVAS
As to the kind of experiment: Adenylyl cyclase membrane assay, type II (cAMP ELISA). Type of assay: biochemical, mouse. The settings on record: cardiomyocyte membrane preparations from transgenic mice; forskolin 50 μM. How it is done:
as §1, §2, §3
Hearts were surgically excised from transgenic mice. Each isolated heart was treated with 3-4 mL of buffer A and cooled to 0 deg C. for 5 minutes. […] Protein concentration was determined using a commercial Bradford assay kit. […]
(§5) A reaction mixture was pre-incubated at 30 deg C. for 5 minutes. […] The cAMP concentration of the supernatant was measured using a Cyclic AMP Competitive ELISA kit purchased from ThermoFischer Scientific.

Assay [5] addresses T3, type VI adenylyl cyclase (Homo sapiens, UniProt O43306).
T3 construct: from tissue; host or cells: heart (cardiomyocyte) membrane preparations from transgenic mice overproducing type VI adenylyl cyclase
As to the kind of experiment: Adenylyl cyclase membrane assay, type VI (cAMP ELISA). Type of assay: biochemical, mouse. The conditions noted are these: cardiomyocyte membrane preparations from transgenic mice; forskolin 50 μM. Here is the method:
as §1, §2, §3
Hearts were surgically excised from transgenic mice. Each isolated heart was treated with 3-4 mL of buffer A and cooled to 0 deg C. for 5 minutes. Treated hearts were homogenized for 10 seconds using a Polytron homogenizer cooled to 0 deg C. and set to speed 6. Homogenized hearts were centrifuged at 500×g at 4 deg C. for 10 minutes. Supernatants were transferred to ultracentrifuge tubes and centrifuged at 35,000 rpm at 4 deg C. for 40 minutes. Isolated pellets were combined with buffer B (500 μL) and sonicated to a suspension. Protein concentration was determined using a commercial Bradford assay kit. Membrane preparations were stored at −80 deg C. […]
as §5

T1 sequence (O95622 whole entry): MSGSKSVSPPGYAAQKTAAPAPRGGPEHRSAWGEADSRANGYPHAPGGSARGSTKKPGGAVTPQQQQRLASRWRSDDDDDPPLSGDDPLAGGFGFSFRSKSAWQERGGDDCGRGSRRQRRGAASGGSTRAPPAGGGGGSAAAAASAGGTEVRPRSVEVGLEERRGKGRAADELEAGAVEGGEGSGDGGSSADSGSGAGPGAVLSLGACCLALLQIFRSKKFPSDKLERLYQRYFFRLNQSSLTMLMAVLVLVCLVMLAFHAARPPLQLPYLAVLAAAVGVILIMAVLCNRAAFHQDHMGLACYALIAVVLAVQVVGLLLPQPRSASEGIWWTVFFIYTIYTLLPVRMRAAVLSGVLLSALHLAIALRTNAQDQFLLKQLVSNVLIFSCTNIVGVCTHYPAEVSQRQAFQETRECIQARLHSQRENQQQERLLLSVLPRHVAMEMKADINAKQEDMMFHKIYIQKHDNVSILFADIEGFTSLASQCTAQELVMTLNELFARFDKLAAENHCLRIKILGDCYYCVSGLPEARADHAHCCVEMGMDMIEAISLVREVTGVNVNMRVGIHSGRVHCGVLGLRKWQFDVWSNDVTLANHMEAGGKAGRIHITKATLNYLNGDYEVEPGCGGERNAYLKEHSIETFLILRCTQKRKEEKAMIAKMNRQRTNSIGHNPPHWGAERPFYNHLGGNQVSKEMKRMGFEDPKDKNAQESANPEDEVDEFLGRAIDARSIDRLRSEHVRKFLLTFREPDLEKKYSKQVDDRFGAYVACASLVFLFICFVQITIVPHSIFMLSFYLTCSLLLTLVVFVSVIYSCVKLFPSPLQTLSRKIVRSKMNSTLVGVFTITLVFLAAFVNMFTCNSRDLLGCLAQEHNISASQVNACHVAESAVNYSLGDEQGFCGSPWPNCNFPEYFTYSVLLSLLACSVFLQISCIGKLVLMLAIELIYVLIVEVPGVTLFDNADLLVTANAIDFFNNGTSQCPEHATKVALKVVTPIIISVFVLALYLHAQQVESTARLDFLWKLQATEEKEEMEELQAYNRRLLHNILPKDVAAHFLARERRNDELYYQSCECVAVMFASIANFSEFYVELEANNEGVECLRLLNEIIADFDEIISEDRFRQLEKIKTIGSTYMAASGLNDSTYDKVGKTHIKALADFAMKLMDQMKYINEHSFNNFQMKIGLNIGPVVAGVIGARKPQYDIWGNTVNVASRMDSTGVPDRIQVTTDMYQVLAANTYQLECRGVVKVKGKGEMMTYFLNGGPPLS
T3 sequence (O43306 whole entry): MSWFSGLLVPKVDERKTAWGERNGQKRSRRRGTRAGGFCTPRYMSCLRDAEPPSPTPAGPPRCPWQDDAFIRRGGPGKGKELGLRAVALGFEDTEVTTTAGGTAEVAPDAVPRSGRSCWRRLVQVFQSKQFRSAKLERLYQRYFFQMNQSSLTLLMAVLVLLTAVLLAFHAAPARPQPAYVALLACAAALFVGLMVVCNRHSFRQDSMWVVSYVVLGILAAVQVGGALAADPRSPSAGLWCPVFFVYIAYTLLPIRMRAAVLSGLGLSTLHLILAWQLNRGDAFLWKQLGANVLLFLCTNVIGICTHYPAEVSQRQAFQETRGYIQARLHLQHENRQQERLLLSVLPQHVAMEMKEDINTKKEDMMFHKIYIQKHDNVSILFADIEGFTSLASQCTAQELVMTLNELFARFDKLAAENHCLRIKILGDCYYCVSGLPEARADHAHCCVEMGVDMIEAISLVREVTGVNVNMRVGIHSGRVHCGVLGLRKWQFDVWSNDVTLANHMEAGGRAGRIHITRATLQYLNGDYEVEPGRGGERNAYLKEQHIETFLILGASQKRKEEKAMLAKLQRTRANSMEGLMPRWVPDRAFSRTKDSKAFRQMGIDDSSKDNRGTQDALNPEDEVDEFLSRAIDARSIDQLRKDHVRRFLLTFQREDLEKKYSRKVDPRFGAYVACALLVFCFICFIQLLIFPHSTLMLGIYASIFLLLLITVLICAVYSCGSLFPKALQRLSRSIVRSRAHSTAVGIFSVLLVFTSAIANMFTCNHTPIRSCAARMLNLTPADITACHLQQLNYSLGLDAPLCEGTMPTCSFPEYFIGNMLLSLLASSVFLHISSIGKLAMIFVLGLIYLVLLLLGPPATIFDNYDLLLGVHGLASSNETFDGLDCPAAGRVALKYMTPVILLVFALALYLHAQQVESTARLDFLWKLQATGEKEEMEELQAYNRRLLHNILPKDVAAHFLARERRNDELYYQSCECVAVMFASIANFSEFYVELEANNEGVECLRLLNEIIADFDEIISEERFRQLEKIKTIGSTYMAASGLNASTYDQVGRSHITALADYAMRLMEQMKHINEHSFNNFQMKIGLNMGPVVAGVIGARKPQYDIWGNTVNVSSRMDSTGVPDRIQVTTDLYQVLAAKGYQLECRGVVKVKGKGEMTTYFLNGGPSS

As to `Nc1nc(F)cc2c1ncn2[C@@H]1CC[C@@H](C(=O)NO)C1` [Compound 10v, (1R,3R)-3-(4-amino-6-fluoro-1H-imidazo[4,5-c]pyridin-1-yl)-N-hydroxycyclopentanecarboxamide], the IC50 amounted to 0.03 µM in assay [1]; 1.14 µM in assay [2]; 1.89 µM in assay [3]; 1.11 µM in assay [4]; 0.03 µM in assay [5].

One may read the IC50 as the concentration that inhibits the measured activity by half.
